Measurements published in the NIST ThermoML archive (doi:10.1021/acs.jced.6b00350).
Several values for one entry are separate records, joined by “and”; a condition that tells them apart may be missing. Identical values can stand only once. Numbers after ± are expanded uncertainties.

Conditions: Liquid, Hot wire method

FC(F)CC(F)(F)F [1,1,1,3,3-pentafluoropropane]
Conditions | thermal conductivity
302.4 K, 9755 kPa | 0.09135 ± 0.0012 W/m/K
302.4 K, 43574 kPa | 0.104 ± 0.0013 W/m/K
302.41 K, 9754 kPa | 0.09128 ± 0.0012 W/m/K
302.43 K, 27824 kPa | 0.09846 ± 0.0013 W/m/K
302.43 K, 35521 kPa | 0.1012 ± 0.0013 W/m/K
302.43 K, 35524 kPa | 0.1013 ± 0.0013 W/m/K
302.44 K, 27822 kPa | 0.09861 ± 0.0013 W/m/K
302.47 K, 4917 kPa | 0.08905 ± 0.0011 W/m/K
302.47 K, 4920 kPa | 0.08908 ± 0.0011 W/m/K
302.49 K, 21586 kPa | 0.09609 ± 0.0012 W/m/K
302.49 K, 21587 kPa | 0.09598 ± 0.0012 W/m/K
302.51 K, 297 kPa | 0.08675 ± 0.0011 W/m/K
302.52 K, 295 kPa | 0.08688 ± 0.0011 W/m/K
302.57 K, 15359 kPa | 0.09341 ± 0.0012 W/m/K
302.57 K, 15368 kPa | 0.0935 ± 0.0012 W/m/K
302.68 K, 68021 kPa | 0.1116 ± 0.0014 W/m/K
302.68 K, 68023 kPa | 0.1115 ± 0.0014 W/m/K
302.69 K, 62436 kPa | 0.1101 ± 0.0014 W/m/K
302.7 K, 62429 kPa | 0.1097 ± 0.0014 W/m/K
302.76 K, 52483 kPa | 0.107 ± 0.0014 W/m/K
302.76 K, 52489 kPa | 0.1069 ± 0.0014 W/m/K
302.81 K, 43572 kPa | 0.104 ± 0.0013 W/m/K
302.82 K, 43572 kPa | 0.1041 ± 0.0013 W/m/K
302.85 K, 35512 kPa | 0.1012 ± 0.0013 W/m/K
302.85 K, 35521 kPa | 0.1013 ± 0.0013 W/m/K
302.87 K, 9749 kPa | 0.09105 ± 0.0012 W/m/K
302.87 K, 9754 kPa | 0.091 ± 0.0012 W/m/K
302.88 K, 27813 kPa | 0.09844 ± 0.0013 W/m/K
302.88 K, 27817 kPa | 0.09814 ± 0.0013 W/m/K
302.93 K, 4918 kPa | 0.08893 ± 0.0011 W/m/K
302.93 K, 4920 kPa | 0.0888 ± 0.0011 W/m/K
302.94 K, 21581 kPa | 0.09604 ± 0.0012 W/m/K
302.94 K, 21589 kPa | 0.09618 ± 0.0012 W/m/K
302.99 K, 297 kPa | 0.08639 ± 0.0011 W/m/K
302.99 K, 298 kPa | 0.08647 ± 0.0011 W/m/K
303.03 K, 15369 kPa | 0.09337 ± 0.0012 W/m/K
303.04 K, 15370 kPa | 0.09341 ± 0.0012 W/m/K
303.11 K, 68011 kPa | 0.1115 ± 0.0014 W/m/K
303.12 K, 68009 kPa | 0.1114 ± 0.0014 W/m/K
303.13 K, 62430 kPa | 0.11 ± 0.0014 W/m/K
303.13 K, 62436 kPa | 0.11 ± 0.0014 W/m/K
303.21 K, 52481 kPa | 0.1068 ± 0.0014 W/m/K
303.21 K, 52487 kPa | 0.1068 ± 0.0014 W/m/K
303.27 K, 43574 kPa | 0.104 ± 0.0013 W/m/K
303.27 K, 43576 kPa | 0.1041 ± 0.0013 W/m/K
303.33 K, 35513 kPa | 0.1011 ± 0.0013 W/m/K
303.33 K, 35514 kPa | 0.1012 ± 0.0013 W/m/K
303.36 K, 9753 kPa | 0.09097 ± 0.0012 W/m/K
303.36 K, 9758 kPa | 0.09104 ± 0.0012 W/m/K
303.36 K, 27804 kPa | 0.0984 ± 0.0013 W/m/K
303.37 K, 27811 kPa | 0.09842 ± 0.0013 W/m/K
303.44 K, 4916 kPa | 0.08869 ± 0.0011 W/m/K
303.44 K, 4920 kPa | 0.08879 ± 0.0011 W/m/K
303.44 K, 21579 kPa | 0.09595 ± 0.0012 W/m/K
303.44 K, 21587 kPa | 0.09607 ± 0.0012 W/m/K
303.51 K, 294 kPa | 0.08655 ± 0.0011 W/m/K
303.51 K, 297 kPa | 0.08645 ± 0.0011 W/m/K
303.54 K, 15365 kPa | 0.09343 ± 0.0012 W/m/K
303.54 K, 15366 kPa | 0.09328 ± 0.0012 W/m/K
321.62 K, 4352 kPa | 0.08273 ± 0.0011 W/m/K
321.63 K, 4356 kPa | 0.08308 ± 0.0011 W/m/K
321.64 K, 337 kPa | 0.08036 ± 0.001 W/m/K
321.65 K, 338 kPa | 0.08047 ± 0.001 W/m/K
321.65 K, 69905 kPa | 0.1085 ± 0.0014 W/m/K
321.65 K, 69906 kPa | 0.1083 ± 0.0014 W/m/K
321.68 K, 58591 kPa | 0.1047 ± 0.0013 W/m/K
321.68 K, 58592 kPa | 0.1049 ± 0.0013 W/m/K
321.69 K, 40553 kPa | 0.09923 ± 0.0013 W/m/K
321.7 K, 40558 kPa | 0.09918 ± 0.0013 W/m/K
321.7 K, 49855 kPa | 0.1015 ± 0.0013 W/m/K
321.7 K, 49873 kPa | 0.1019 ± 0.0013 W/m/K
321.71 K, 33193 kPa | 0.0964 ± 0.0012 W/m/K
321.71 K, 33197 kPa | 0.09631 ± 0.0012 W/m/K
321.73 K, 26150 kPa | 0.09344 ± 0.0012 W/m/K
321.73 K, 26151 kPa | 0.093 ± 0.0012 W/m/K
321.74 K, 19697 kPa | 0.09044 ± 0.0012 W/m/K
321.76 K, 19703 kPa | 0.09051 ± 0.0012 W/m/K
321.77 K, 13835 kPa | 0.08752 ± 0.0011 W/m/K
321.78 K, 13839 kPa | 0.08772 ± 0.0011 W/m/K
321.81 K, 8795 kPa | 0.08531 ± 0.0011 W/m/K
321.82 K, 8794 kPa | 0.08538 ± 0.0011 W/m/K
322.02 K, 69892 kPa | 0.1082 ± 0.0014 W/m/K
322.02 K, 69896 kPa | 0.1083 ± 0.0014 W/m/K
322.06 K, 58582 kPa | 0.1049 ± 0.0013 W/m/K
322.06 K, 58584 kPa | 0.105 ± 0.0013 W/m/K
322.07 K, 4350 kPa | 0.08295 ± 0.0011 W/m/K
322.07 K, 4352 kPa | 0.08313 ± 0.0011 W/m/K
322.08 K, 49847 kPa | 0.1021 ± 0.0013 W/m/K
322.09 K, 40542 kPa | 0.09897 ± 0.0013 W/m/K
322.09 K, 49848 kPa | 0.1021 ± 0.0013 W/m/K
322.1 K, 332 kPa | 0.08025 ± 0.001 W/m/K
322.1 K, 40546 kPa | 0.09896 ± 0.0013 W/m/K
322.11 K, 332 kPa | 0.08034 ± 0.001 W/m/K
322.11 K, 33198 kPa | 0.09595 ± 0.0012 W/m/K
322.12 K, 33200 kPa | 0.09642 ± 0.0012 W/m/K
322.14 K, 26147 kPa | 0.09346 ± 0.0012 W/m/K
322.15 K, 26148 kPa | 0.09328 ± 0.0012 W/m/K
322.18 K, 19689 kPa | 0.09041 ± 0.0012 W/m/K
322.18 K, 19694 kPa | 0.09034 ± 0.0012 W/m/K
322.23 K, 13831 kPa | 0.08764 ± 0.0011 W/m/K
322.23 K, 13837 kPa | 0.08773 ± 0.0011 W/m/K
322.27 K, 8791 kPa | 0.08514 ± 0.0011 W/m/K
322.27 K, 8795 kPa | 0.08522 ± 0.0011 W/m/K
322.42 K, 69875 kPa | 0.1077 ± 0.0014 W/m/K
322.42 K, 69881 kPa | 0.1077 ± 0.0014 W/m/K
322.47 K, 58570 kPa | 0.1047 ± 0.0013 W/m/K
322.48 K, 58576 kPa | 0.1046 ± 0.0013 W/m/K
322.51 K, 49828 kPa | 0.1017 ± 0.0013 W/m/K
322.51 K, 49834 kPa | 0.1019 ± 0.0013 W/m/K
322.53 K, 40525 kPa | 0.09861 ± 0.0013 W/m/K
322.53 K, 40531 kPa | 0.09882 ± 0.0013 W/m/K
322.56 K, 4352 kPa | 0.0827 ± 0.0011 W/m/K and 0.08272 ± 0.0011 W/m/K
322.56 K, 33194 kPa | 0.09577 ± 0.0012 W/m/K and 0.09565 ± 0.0012 W/m/K
322.6 K, 328 kPa | 0.08026 ± 0.001 W/m/K
322.61 K, 332 kPa | 0.08024 ± 0.001 W/m/K
322.61 K, 26147 kPa | 0.09305 ± 0.0012 W/m/K
322.61 K, 26148 kPa | 0.09299 ± 0.0012 W/m/K
322.65 K, 19690 kPa | 0.0904 ± 0.0012 W/m/K
322.66 K, 19689 kPa | 0.09023 ± 0.0012 W/m/K
322.71 K, 13830 kPa | 0.08772 ± 0.0011 W/m/K
322.72 K, 13830 kPa | 0.08785 ± 0.0011 W/m/K
322.76 K, 8791 kPa | 0.08512 ± 0.0011 W/m/K
322.77 K, 8793 kPa | 0.08496 ± 0.0011 W/m/K
322.85 K, 69859 kPa | 0.1077 ± 0.0014 W/m/K
322.86 K, 69861 kPa | 0.1078 ± 0.0014 W/m/K
322.92 K, 58557 kPa | 0.1047 ± 0.0013 W/m/K
322.92 K, 58569 kPa | 0.1047 ± 0.0013 W/m/K
322.96 K, 49820 kPa | 0.1018 ± 0.0013 W/m/K
322.97 K, 49830 kPa | 0.1018 ± 0.0013 W/m/K
323 K, 40517 kPa | 0.09874 ± 0.0013 W/m/K
323 K, 40525 kPa | 0.09862 ± 0.0013 W/m/K
323.04 K, 33192 kPa | 0.0959 ± 0.0012 W/m/K
323.05 K, 33192 kPa | 0.09594 ± 0.0012 W/m/K
323.09 K, 4348 kPa | 0.08267 ± 0.0011 W/m/K
323.1 K, 4349 kPa | 0.08248 ± 0.0011 W/m/K
323.1 K, 26147 kPa | 0.09286 ± 0.0012 W/m/K
323.11 K, 26150 kPa | 0.09307 ± 0.0012 W/m/K
323.15 K, 332 kPa | 0.0802 ± 0.001 W/m/K
